From US20160045505A1, “COMPOUNDS AND COMPOSITIONS FOR THE TREATMENT OF PARASITIC DISEASES” (NOVARTIS AG, priority 2013, published 2016)

Tests used:
[1] = tested on: Leishmania donovani axenic amastigote parasites; experiment: Leishmania donovani axenic amastigote proliferation assay (Cell TiterGlo luminescence, 2 day incubation); assay type: cell-based; details: Leishmania donovani, axenic amastigotes, inhibition of proliferation; read-out: L. donovani amastigotes EC50
[2] = tested on: L. donovani HU3 strain in mouse peritoneal macrophages; experiment: Assay for proliferation of Leishmania parasites in infected mouse peritoneal macrophages (SybrGreen staining, high-content imaging, 5 days); assay type: cell-based, Leishmania donovani; details: Leishmania donovani, Peritoneal macrophage, L. donovani in mouse peritoneal macrophages, inhibition of proliferation; read-out: L. donovani Macrophage EC50
[3] = tested on: Trypanosoma brucei Lister 427 strain, bloodstream form; experiment: Assay for proliferation of kinetoplastid parasite Trypanosoma brucei (Cell Titer Glo, 48 hours); assay type: cell-based; details: Trypanosoma brucei, T. brucei Lister 427 bloodstream form, inhibition of proliferation; read-out: T. brucei EC50
Method in brief: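 Bloodstream-form T. brucei Lister 427 in HMI-9 medium was exposed to compound (DMSO vehicle) for 48 hours at 37° C, 5% CO2. Parasite growth was read as ATP by CellTiter-Glo luminescence, with EC50 calculated from percent inhibition.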

[4] = tested on: Trypanosoma cruzi amastigotes (Tulahuen strain expressing Lac-Z) cultured in 3T3 fibroblast cells; experiment: microbe, parasite or virus in culture; assay type: cell-based; details: Trypanosoma cruzi, TULAHUEN, Fibroblast, T. cruzi amastigotes in 3T3 fibroblast cells, inhibition of proliferation; read-out: T cruzi EC50

Structure (SMILES)	EC50 [1]	EC50 [2]	EC50 [3]	EC50 [4]
Cc1nc(C)c(C(=O)Nc2ccc(F)c(-c3cn4cc(NC(=O)C5(C)CCCCO5)cnc4n3)c2)o1 (stereo not drawn) [Compound 170]	428 nM	887 nM	518 nM	1160 nM
Cc1n[nH]c(C(=O)Nc2cnc3nc(-c4cc(NC(=O)c5oc(C)nc5C)ccc4F)cn3c2)n1 [Compound 171]	1540 nM	> 50000 nM	1410 nM	> 20000 nM
Cc1nc(C)c(C(=O)Nc2ccc(F)c(-c3cn4cc(NC(=O)C5CN(C(=O)OC(C)(C)C)CCCO5)cnc4n3)c2)o1 (stereo not drawn) [Compound 173]	355 nM	578 nM	148 nM	405 nM
Cc1nc(C)c(C(=O)Nc2ccc(F)c(-c3cn4cc(NC(=O)c5ccc(OCCN6CCN(C)CC6)cc5)cnc4n3)c2)o1 [Compound 175]	> 25000 nM	12600 nM	4480 nM	> 20000 nM
Cc1nc(C)c(C(=O)Nc2ccc(F)c(-c3cn4cc(NC(=O)c5nc(NC(=O)OC(C)(C)C)cn5C)cnc4n3)c2)o1 [Compound 176]	> 25000 nM	> 50000 nM	> 50000 nM	> 20000 nM
COC(C)C(=O)Nc1cnc2nc(-c3cc(NC(=O)c4oc(C)nc4C)ccc3F)cn2c1 (stereo not drawn) [Compound 177]	310 nM	911 nM	161 nM	3470 nM
Cc1nc(C)c(C(=O)Nc2ccc(F)c(-c3cn4cc(NC(=O)c5nc(N)cn5C)cnc4n3)c2)o1 [Compound 178]	6710 nM	> 42500 nM	2970 nM	> 20000 nM
Cc1nc(C)c(C(=O)Nc2ccc(F)c(-c3cn4cc(NC(=O)C5CNCCO5)cnc4n3)c2)o1 (stereo not drawn) [Compound 179]	> 25000 nM	> 45800 nM	6960 nM	> 20000 nM
Cc1nc(C)c(C(=O)Nc2ccc(F)c(-c3cn4cc(NC(=O)[C@@H]5[C@H](N)[C@@H]6C=C[C@H]5C6)cnc4n3)c2)o1 [Compound 180]	> 25000 nM	> 50000 nM	4380 nM	> 20000 nM
Cc1nc(C)c(C(=O)Nc2ccc(F)c(-c3cn4cc(NC(=O)[C@H]5[C@@H](N)[C@@H]6C=C[C@H]5C6)cnc4n3)c2)o1 [Compound 181]	> 25000 nM	33100 nM	12700 nM	> 20000 nM
Cc1nc(C)c(C(=O)Nc2ccc(F)c(-c3cn4cc(NC(=O)C5CNCCCO5)cnc4n3)c2)o1 (stereo not drawn) [Compound 182]	> 25000 nM	> 50000 nM	10800 nM	> 20000 nM
Cc1nc(C(=O)Nc2cnc3nc(-c4cc(NC(=O)c5oc(C)nc5C)ccc4F)cn3c2)no1 [Compound 183]	3630 nM	11500 nM	2100 nM	> 20000 nM
Cc1nc(C)c(C(=O)Nc2ccc(F)c(-c3cn4cc(NC(=O)CN(C)C)cnc4n3)c2)o1 [Compound 186]	15800 nM	6220 nM	590 nM	10200 nM
Cc1nc(C)c(C(=O)Nc2ccc(F)c(-c3cn4cc(NC(=O)c5ncco5)cnc4n3)c2)o1 [Compound 188]	226 nM	> 5600 nM	185 nM	1230 nM
Cc1nc(C)c(C(=O)Nc2ccc(F)c(-c3cn4cc(NC(=O)c5ccc(CN(C)C)cc5)cnc4n3)c2)o1 [Compound 189]	9070 nM	15500 nM	4270 nM	10700 nM
Cc1ncc(C(=O)Nc2cnc3nc(-c4cc(NC(=O)c5oc(C)nc5C)ccc4F)cn3c2)[nH]1 [Compound 190]	775 nM	8480 nM	244 nM	12200 nM
Cc1nc(C)c(C(=O)Nc2ccc(F)c(-c3cn4cc(NC(=O)C5(C)COC5)cnc4n3)c2)o1 [Compound 192]	3240 nM	> 25100 nM	1140 nM	> 20000 nM
Cc1nc(C)c(C(=O)Nc2ccc(F)c(-c3cn4cc(NC(=O)C5(C)CCCO5)cnc4n3)c2)o1 (stereo not drawn) [Compound 193]	339 nM	717 nM	201 nM	1090 nM
Cc1nc(C)c(C(=O)Nc2ccc(F)c(-c3cn4cc(NC(=O)C5CCN(C(C)C)CC5)cnc4n3)c2)o1 [Compound 194]	> 25000 nM	> 50000 nM	29800 nM	> 20000 nM
Cc1nc(C)c(C(=O)Nc2ccc(F)c(-c3cn4cc(NC(=O)c5ccc(CN(C)C)cn5)cnc4n3)c2)o1 [Compound 195]	5640 nM	5330 nM	463 nM	2040 nM
Cc1ncc(C(=O)Nc2ccc(F)c(-c3cn4cc(-c5ccccn5)cnc4n3)c2)o1 [Compound 198]	7 nM	16 nM	18 nM	16 nM
Cc1nc(C)c(C(=O)Nc2ccc(F)c(-c3cn4cc(F)cnc4n3)c2)o1 [Compound 199]	878 nM	6440 nM	1120 nM	1060 nM
Cc1nc(C)c(C(=O)Nc2ccc(F)c(-c3cn4cc(C(F)(F)F)cnc4n3)c2)o1 [Compound 200]	219 nM	631 nM	164 nM	147 nM

Structure (SMILES)	EC50 [1]	EC50 [2]	EC50 [3]	EC50 [4]
Cc1ncc(C(=O)Nc2ccc(F)c(-c3cn4cc(C(F)(F)F)cnc4n3)c2)o1 [Compound 201]	58 nM	208 nM	460 nM	126 nM
Cc1ncc(C(=O)Nc2cccc(-c3cn4cc(NC(=O)OC(C)C)cnc4n3)c2)o1 [Compound 202]	229 nM	2720 nM	249 nM	> 20000 nM
CC(C)OC(=O)Nc1cnc2nc(-c3cccc(NC(=O)c4cnco4)c3)cn2c1 [Compound 203]	970 nM	13800 nM	1160 nM	10600 nM
Cc1ncoc1C(=O)Nc1cccc(-c2cn3cc(NC(=O)OC(C)C)cnc3n2)c1 [Compound 204]	941 nM	19200 nM	676 nM	4100 nM
Cc1nc(C)c(C(=O)Nc2ccc(F)c(-c3cn4cc(Cl)cnc4n3)c2)o1 [Compound 205]	300 nM	1240 nM	352 nM	413 nM
CC(=O)Nc1cnc2nc(-c3cc(NC(=O)c4cnc(C)o4)ccc3F)cn2c1 [Compound 206]	3190 nM	> 50000 nM	> 50000 nM	> 20000 nM
Cc1nc(C)c(C(=O)Nc2ccc(F)c(-c3cn4cc(C(F)F)cnc4n3)c2)o1 [Compound 208]	134 nM	445 nM	108 nM	100 nM
Cc1ncc(C(=O)Nc2ccc(F)c(-c3cn4cc(C(F)F)cnc4n3)c2)o1 [Compound 209]	87 nM	317 nM	169 nM	130 nM
Cc1nc(C)c(C(=O)Nc2ccc(F)c(-c3cn4cc(C5CCC5)cnc4n3)c2)o1 [Compound 210]	47 nM	85 nM	34 nM	31 nM
Cc1ncc(C(=O)Nc2ccc(F)c(-c3cn4cc(C5CCC5)cnc4n3)c2)o1 [Compound 211]	21 nM	55 nM	29 nM	16 nM
CNc1cnc2nc(-c3cc(NC(=O)c4oc(C)nc4C)ccc3F)cn2c1 [Compound 212]	1120 nM	4150 nM	1010 nM	1300 nM
CON(C)C(=O)Nc1ccc(Cl)c(-c2cn3cc(NC(=O)OC(C)C)cnc3n2)c1 [Compound 214]	90 nM	785 nM	40 nM	154 nM
CC(C)OC(=O)Nc1cnc2nc(-c3cc(NC(=O)N4CCOCC4)ccc3Cl)cn2c1 [Compound 216]	4430 nM	> 50000 nM	3130 nM	11500 nM
CC(C)OC(=O)Nc1cnc2nc(-c3cc(NC(=O)N4CCNC4=O)ccc3Cl)cn2c1 [Compound 217]	> 25000 nM	> 50000 nM	> 50000 nM	7060 nM
CC(C)OC(=O)Nc1cnc2nc(-c3cc(NC(=O)N(C)CC(F)(F)F)ccc3F)cn2c1 [Compound 222]	109 nM	424 nM	67 nM	419 nM
Cc1nc(C)c(C(=O)Nc2ccc(F)c(-c3cn4cc(NC(=O)N5CCNC5=O)cnc4n3)c2)o1 [Compound 224]	1410 nM	> 50000 nM	757 nM	> 20000 nM
CN(C)C(=O)Nc1ccc(F)c(-c2cn3cc(Cl)cnc3n2)c1 [Compound 225]	1610 nM	8250 nM	468 nM	1200 nM
CC(C)OC(=O)Nc1cnc2nc(-c3cc(NC(=O)N4CC[C@H](F)C4)ccc3F)cn2c1 [Compound 227]	3740 nM	> 50000 nM	4370 nM	4910 nM
CC(C)OC(=O)Nc1cnc2nc(-c3cc(NC(=O)N(C(C)C)C(C)C)ccc3F)cn2c1 [Compound 228]	> 25000 nM	19500 nM	34500 nM	9990 nM
CC(C)OC(=O)Nc1cnc2nc(-c3cc(NC(=O)N4CC[C@@H](F)C4)ccc3F)cn2c1 [Compound 229]	884 nM	2820 nM	776 nM	11000 nM
CN(C)C(=O)Nc1ccc(F)c(-c2cn3cc(F)cnc3n2)c1 [Compound 230]	2730 nM	11700 nM	323 nM	1310 nM
O=C(Nc1ccc(F)c(-c2cn3cc(F)cnc3n2)c1)N1CC(F)C1 [Compound 231]	307 nM	1720 nM	313 nM	420 nM
